Earlier results as cited in patent US20140255430A1, “METHODS AND REAGENTS FOR DETECTION AND TREATMENT OF ESOPHAGEAL METAPLASIA” (NATIONAL UNIVERSITY OF SINGAPORE, priority 2010, published 2014).

Molecular target: T1, PPARgamma (Homo sapiens, UniProt P37231)
T1 sequence (P37231 1-505): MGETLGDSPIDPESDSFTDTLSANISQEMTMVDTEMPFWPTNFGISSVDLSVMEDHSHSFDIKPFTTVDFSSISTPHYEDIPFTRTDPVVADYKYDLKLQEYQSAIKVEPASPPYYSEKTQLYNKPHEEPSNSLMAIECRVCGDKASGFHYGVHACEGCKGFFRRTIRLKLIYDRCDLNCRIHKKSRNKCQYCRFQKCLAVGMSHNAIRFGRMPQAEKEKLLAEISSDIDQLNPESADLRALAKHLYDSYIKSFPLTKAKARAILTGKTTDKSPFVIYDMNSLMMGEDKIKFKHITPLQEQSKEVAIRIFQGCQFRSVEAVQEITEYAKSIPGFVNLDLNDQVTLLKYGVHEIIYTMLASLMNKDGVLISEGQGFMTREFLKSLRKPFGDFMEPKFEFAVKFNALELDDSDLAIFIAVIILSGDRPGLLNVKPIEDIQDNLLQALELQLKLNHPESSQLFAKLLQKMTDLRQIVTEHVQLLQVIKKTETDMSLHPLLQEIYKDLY
Conditions: irreversible inhibitor

Structure (SMILES): O=C(Nc1ccccc1)c1cc([N+](=O)[O-])ccc1Cl [GW-9662, 2-Chloro-5-nitro-N-phenyl-benzamide]
- IC50 for suppression of PPARgamma: nanomolar
